A word on the IC50: it is the point on the concentration scale where inhibition reaches its midpoint.

The values below come from patent publication US11020400B2, “Tetrahydropyranyl amino-pyrrolopyrimidinone and methods of use thereof” (ArQule, Inc., priority 2015, dated 2021).

In one test the test system is TMD-8 cells. Nature of the test: Anti-Proliferation Assay (MTS), TMD-8 cells. The class given is cell-based. As to conditions: Homo sapiens, TMD8, treated for 72 hours, MTS cell survival. As to the method: (§1) Cell survival is determined by a MTS assay. Briefly, cells (i.e., TMD-8 cells or Rec-1 cells) are plated in a 96-well plate, cultured in complete growth medium, and then treated with various drugs and drug combinations. MTS/PMS is added and incubated, followed by assessment of cell viability using the microplate reader. Data is normalized to untreated controls and analyzed with Microsoft Excel.
(§2) Cell survival was determined by the MTS assay. Briefly, cells (i.e., TMD-8 cells or Rec-1 cells) were plated in a 96-well plate at 2,000-10,000 cells per well, cultured for 24 hours in complete growth medium, and then treated with various drugs and drug combinations for 72 hours. MTS/PMS was added and incubated for 4 hour, followed by assessment of cell viability using the microplate reader (absorbance at 490 nm). Data were normalized to untreated controls and analyzed with Microsoft Excel.

For the next test, the system named is Rec-1 cells. Nature of the test: Anti-Proliferation Assay (MTS), Rec-1 cells. The class given is cell-based. The note with it: Homo sapiens, Rec1, treated for 72 hours, MTS cell survival. As to the method: as §1, §2

Consider `O=C(c1ccc(Oc2ccccc2)cc1Cl)c1c[nH]c2ncnc(N[C@@H]3CC[C@@H](CO)OC3)c12` [Compound (I), (2-chloro-4-phenoxyphenyl)(4-(((3R,6S)-6-(hydroxymethyl)tetrahydro-2H-pyran-3-yl)amino)-7H-pyrrolo[2,3-d]pyrimidin-5-yl)methanone], for which the IC50 with TMD-8 cells came to 0.13 ± 0.06 µM; in the test on Rec-1 cells it was 0.18 ± 0.07 µM.
